According to patent US10858308B2, “Compounds and compositions” (priority 2017, dated 2020):
Marks after values point to notes of the source that are not given here.

Key:
[1] = test system: Candida albicans ATCC 10231; assay: MIC by broth dilution assay, Candida albicans; assay type: cell-based; settings: 4 experiments, inoculum 3-6.5 × 10^3 cfu/ml, range bacteriostatic-bactericide concentration; for MIC: ATCC10231, 37° C. 18-22 hours, read-out: Sample's MIC; for Sample's MIC: 37° C. 18-22 hours
Procedure: (§1) Minimal inhibitory concentration (MIC) of each compound was tested by broth dilution assay.
(§2) • McFarland standard 0.5 • Falcon round-bottom 5 ml tubes • Disposable loops (1 μl and 10 μl) • Graduated pipettes (20 μl-1000 μl) • Disposable Petri dishes Media • Sterile normal saline • TSB (Tryptic Soy Broth) • TSA (Tryptic Soy Agar) Bacterial and Fungal strains • Salmonella enterica serovar Typhimurium ATCC 14028 • Staphylococcus aureus ATCC 6538 • Candida albicans ATCC 10231
(§3) Compounds 2, 3 and 4 were diluted in dimethyl sulfoxide (DMSO) at 10 mg/ml and were future 2-fold diluted for testing in TSB.
(§4) From a pure o/n culture, material from at least 3-4 colonies was chosen and suspended totally in 4 ml saline in tubes. The suspension was mixed.
(§5) The turbidity of inoculum was adjusted to match that of standard by comparing visually with the McFarland 0.5 standard using white paper with black lines as background.
(§6) The McFarland 0.5 suspension were diluted as follows for the species tested at this course:
(§7) The suspensions were used for inoculation within 15 minutes.
(§8) The Falcon round-bottom 5 ml tubes were inoculated with 500 μl of the inoculum suspension with 500 μl two-fold dilutions of antimicrobial agent using a graduated pipette
(§9) Tubes were sealed and incubated at 37° C. for 18-22 hours. This was done to avoid losing growth media and to avoid cross contamination.
(§10) McFarland 0.5 is approximately 10^8 CFU/ml. Standardization of inoculum is essential because the interpretation of the results is based on a certain inoculum.
(§11) Each tube contained approximately 5×10^5-1×10^6 CFU/ml after inoculation of bacteria and […] 5×10^3-1×10^4 CFU/ml of yeast.
(§12) Purity of the inoculum suspension was checked.
(§13) Growth in the 3 positive control tubes was checked.
(§14) Minimal inhibitory concentration (MIC) was recorded as the lowest concentration of antimicrobial agent with no visible growth.

[2] = test system: Staphylococcus aureus ATCC 6538; assay: MIC by broth dilution assay, Staphylococcus aureus; assay type: cell-based; settings: ATCC6538, 37° C. 18-22 hours, 4 experiments, inoculum 1.2-2.1 × 10^6 cfu/ml, range bacteriostatic-bactericide concentration, read-out: Sample's MIC
Procedure: as §1, §2, §3, §4, §5, §6
Gr-pos.: 50 μl McFarl. 0.5 into 10 ml broth
as §7
The Falcon round-bottom 5 ml tubes were inoculated with 500 μl of the inoculum suspension with 500 μl two-fold dilutions of antimicrobial agent using a graduated pipette […]
as §14

[3] = test system: Salmonella enterica serovar Typhimurium ATCC 14028; assay: MIC by broth dilution assay, Salmonella Typhimurium; assay type: cell-based; settings: for MIC: Salmonella enterica, read-out: Sample's MIC
Procedure: as §1, §2, §3, §4, §5, §6
Gr-neg.: 10 μl McFarl. 0.5 into 10 ml broth
as §7, §8, §9, §10, §11, §12, §13, §14

Vaccinia virus (WR-VV) = assay type: cell-based; design: dose or concentration left out as unconfirmed; settings: BSC 40 cells pre-treated
pH of aqueous solution = assay type: physicochemical
Surfactant activity = assay type: physicochemical
[4] = test system: Herpes Simplex virus-1 (HSV 1); assay: HSV 1 spread and plaque assay in Vero cells
[5] = in the presence of 100 μg/ml of the compounds
[6] = in the presence of the compounds

Cc1ccc(C(C)C)c(OC(=O)C[N+](C)(C)CCCCCCCCCC[N+](C)(C)CCCCCCCCCC[N+](C)(C)CC(=O)Oc2cc(C(C)C)ccc2C)c1 [Compound 3, N^1-{{2-[2-methyl-5-(propan-2-yl)phenoxy]-(2-oxoethyldimethyl)azaniumyl bromide}decyl}-N^10-{2-[5-methyl-2-(propan-2-yl)phenoxy]-2oxoethyl}-N^1,N^1,N^1,N^10,N^10-tetramethyldecane-1,10-bis(aminium) dichloride]
MIC [1]: 31.2 to 62.5 µg/mL | MIC [2]: 15.6 to 31.2 µg/mL | MIC [3]: 31.2 to 62.5 µg/mL | inhibition of Vaccinia virus plaque formation (Vaccinia virus (WR-VV)): none of compounds 2 or 3 inhibited Vaccinia virus (VV) plaque formation | Aqueous solution pH (pH of aqueous solution): 7.2 | Surfactant activity (Surfactant activity): Displays Surfactant Activity | HSV-1 infectivity reduced by [4, 5]: 80% | HSV-1 infectivity reduced by [4, 6]: 50% | inhibitory effect on HSV 1 spreading and plaque number ([4]; pre-treated, liquid and agar plaque assay, two days of infection, dose dependent): strong inhibitory effect

Cc1ccc(C(C)C)c(OC(=O)C[N+](C)(C)CCCCCCCCCC[N+](C)(C)CC(=O)Oc2cc(C(C)C)ccc2C)c1 [Compound 2, N^1-{2-[2-methyl-5-(propan-2-yl)phenoxy]-2-oxoethyl}-N^1,N^1,N^10,N^10-tetramethyl-N^10-{2-[5-methyl-2-(propan-2-yl)phenoxy]-2oxoethyl}decane-1,10-bis(aminium) dichloride]
Sample's MIC [1]: 62.5-125* μg/ml | MIC [1]: 62.5 to 125 µg/mL | MIC [2]: 31.2 to 62.5 µg/mL | MIC [3]: 62.5 to 125 µg/mL | melting point: 92 to 96 °C | HSV-1 infectivity reduced by [4, 5]: 80% | HSV-1 infectivity reduced by [4, 6]: 50%

N^1-{2-[2-methyl-5-(propan-2-yl)phenoxy]-2-oxoethyl}-N^1,N^1,N^10,N^10-tetramethyl-N^10-{2-[5-methyl-2-(propan-2-yl)phenoxy]-2oxoethyl}decane-1,10-bis(aminium) dichloride [Compound 4]
Sample's MIC [1]: 31.25 to 62.5 µg/mL | Sample's MIC ([3]; Salmonella enterica serovar Typhimurium ATCC 14028, broth dilution, 37° C. 18-22 hours, 4 experiments, inoculum 5 × 10^3 cfu/ml, range bacteriostatic-bactericide concentration): 31.25 to 62.5 µg/mL
